Assay results published in patent US11691949B2, “Quinoline sulfonamide compounds and their use as antibacterial agents” (OTAGO INNOVATION LIMITED, priority 2017, dated 2023).
≈ marks a conversion by molar mass, not a printed value. Where two headings read alike, the source gives them in different places.

Tests used:
Format in all cases: cell-based
S. uberis ATCC 19436 = assay: MIC by broth microdilution, S. uberis; details: Streptococcus uberis, read-out: S. uberis ATCC 19436 MIC
Outline: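 Streptococcus uberis ATCC 19436 was tested in Todd Hewitt Broth by broth microdilution in 96-well flat bottom plates, in biological triplicate. Overnight cells were diluted to OD600 of approximately 0.025, giving about 5×10^5 cfu/mL in the wells. Compounds were serially diluted two-fold to 200 μl, incubated 24 h at 37° C. and 200 rpm, and the MIC was taken from OD600.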

S. aureus ATCC 6538 = assay: MIC by broth microdilution, S. aureus; details: Staphylococcus aureus, read-out: S. aureus ATCC 6538 MIC
Outline: (§1)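 Overnight cultures diluted to ~5×10^5 cfu/mL final; S. aureus in TSB and CAMHB, E. coli in LB and CAMHB, zinc sulphate to 50 μM final as required; two-fold serial dilutions. MIC = lowest concentration with no growth by OD600 after 24 h, 37° C, 200 rpm. MBC by Miles-Misra drop-plate viability count.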

E. coli ATCC 10596 = assay: MIC by broth microdilution, E. coli; details: Escherichia coli, read-out: E. coli ATCC 10536 MIC
Outline: as §1

[1] = ATCC 10536 / ATCC 10596, No Zinc
[2] = ATCC 10536 / ATCC 10596, Zinc (50 μM)

SMILES | MIC (S. uberis ATCC 19436; ATCC19436, No Zinc) | MIC (S. uberis ATCC 19436; ATCC19436, Zinc (50 μM)) | MIC (S. aureus ATCC 6538; ATCC6538, No Zinc) | MIC (S. aureus ATCC 6538; ATCC6538, Zinc (50 μM)) | MIC (E. coli ATCC 10596; [1]) | MIC (E. coli ATCC 10596; [2])
CN(C)Cc1ccc2cccc(NS(=O)(=O)c3cccc(C(N)=O)c3)c2n1 [ZDR331, 3-(N-(2-((Dimethylamino)methyl)quinolin-8-yl)sulfamoyl)benzamide] | > 256 µg/mL | 16 µg/mL (≈ 41.6 µM) | > 256 µg/mL | > 256 µg/mL | > 256 µg/mL | > 256 µg/mL
COC(=O)Nc1ccc(S(=O)(=O)Nc2cccc3ccc(CN(C)C)nc23)cc1 [ZDR332, Methyl (4-(N-(2-((dimethylamino)methyl)quinolin-8-yl)sulfamoyl)phenyl)carbamate] | 256 µg/mL (≈ 618 µM) | 2 µg/mL (≈ 4.83 µM) | > 256 µg/mL | > 256 µg/mL | > 256 µg/mL | > 256 µg/mL
CN(C)Cc1ccc2cccc(NS(=O)(=O)c3ccc(NC(=O)OC(C)(C)C)cc3)c2n1 [ZDR333, tert-Butyl (4-(N-(2-((dimethylamino)methyl)quinolin-8-yl)sulfamoyl)phenyl)carbamate] | 64 µg/mL (≈ 140 µM) | 0.125 µg/mL (≈ 0.274 µM) | 128 µg/mL (≈ 280 µM) | 128 µg/mL (≈ 280 µM) | > 256 µg/mL | > 256 µg/mL
CN(C)Cc1ccc2cccc(NS(=O)(=O)c3cccc(Cl)c3Cl)c2n1 [ZDR336, 2,3-Dichloro-N-(2-((dimethylamino)methyl)quinolin-8-yl)benzenesulfonamide] | 64 µg/mL (≈ 156 µM) | 0.0625 µg/mL (≈ 0.152 µM) | 64 µg/mL (≈ 156 µM) | 128 µg/mL (≈ 312 µM) | > 256 µg/mL | > 256 µg/mL
CN(C)Cc1ccc2cccc(NS(=O)(=O)c3cc(F)c(F)cc3F)c2n1 [ZDR337, N-(2-((Dimethylamino)methyl)quinolin-8-yl)-2,4,5-trifluorobenzenesulfonamide] | 256 µg/mL (≈ 647 µM) | 0.0625 µg/mL (≈ 0.158 µM) | > 256 µg/mL | > 256 µg/mL | > 256 µg/mL | > 256 µg/mL
CN(C)Cc1ccc2cccc(NS(=O)(=O)c3ccc(F)c(F)c3)c2n1 [ZDR338, N-(2-((Dimethylamino)methyl)quinolin-8-yl)-3,4-difluorobenzenesulfonamide] | 128 µg/mL (≈ 339 µM) | 0.0625 µg/mL (≈ 0.166 µM) | > 256 µg/mL | > 256 µg/mL | > 256 µg/mL | > 256 µg/mL
CN(C)Cc1ccc2cccc(NS(=O)(=O)c3cccc4cnccc34)c2n1 [ZDR339, N-(2-((Dimethylamino)methyl)quinolin-8-yl)isoquinoline-5-sulfonamide] | 256 µg/mL (≈ 652 µM) | 2 µg/mL (≈ 5.1 µM) | > 256 µg/mL | > 256 µg/mL | > 256 µg/mL | > 256 µg/mL
CN(C)Cc1ccc2cccc(NS(=O)(=O)c3cccc4cccnc34)c2n1 [ZDR340, N-(2-((Dimethylamino)methyl)quinolin-8-yl)quinoline-8-sulfonamide] | 64 µg/mL (≈ 163 µM) | 0.25 µg/mL (≈ 0.637 µM) | > 256 µg/mL | 32 µg/mL (≈ 81.5 µM) | > 256 µg/mL | > 256 µg/mL
CCCCNCc1ccc2cccc(NS(=O)(=O)c3ccc(C(F)(F)F)cc3)c2n1 [ZDR401, N-(2-((Butylamino)methyl)quinolin-8-yl)-4-(trifluoromethyl)benzenesulfonamide] | 16 µg/mL (≈ 36.6 µM) | 0.125 µg/mL (≈ 0.286 µM) | 32 µg/mL (≈ 73.1 µM) | 128 µg/mL (≈ 293 µM) | 64 µg/mL (≈ 146 µM) | > 256 µg/mL
CCC(C)NCc1ccc2cccc(NS(=O)(=O)c3ccc(C(F)(F)F)cc3)c2n1 (stereo not drawn) [ZDR402, N-(2-((sec-Butylamino)methyl)quinolin-8-yl)-4-(trifluoromethyl)benzenesulfonamide] | 16 µg/mL (≈ 36.6 µM) | 0.125 µg/mL (≈ 0.286 µM) | 32 µg/mL (≈ 73.1 µM) | 128 µg/mL (≈ 293 µM) | 256 µg/mL (≈ 585 µM) | > 256 µg/mL
CC(C)CNCc1ccc2cccc(NS(=O)(=O)c3ccc(C(F)(F)F)cc3)c2n1 [ZDR403, N-(2-((Iso-Butylamino)methyl)quinolin-8-yl)-4-(trifluoromethyl)benzenesulfonamide] | 16 µg/mL (≈ 36.6 µM) | 0.125 µg/mL (≈ 0.286 µM) | 32 µg/mL (≈ 73.1 µM) | 128 µg/mL (≈ 293 µM) | 64 µg/mL (≈ 146 µM) | 256 µg/mL (≈ 585 µM)
O=S(=O)(Nc1cccc2ccc(CNC3CCCC3)nc12)c1ccc(C(F)(F)F)cc1 [ZDR404, N-(2-((Cyclopentylamino)methyl)quinolin-8-yl)-4-(trifluoromethyl)benzenesulfonamide] | 16 µg/mL (≈ 35.6 µM) | 0.125 µg/mL (≈ 0.278 µM) | 32 µg/mL (≈ 71.2 µM) | 256 µg/mL (≈ 570 µM) | 128 µg/mL (≈ 285 µM) | > 256 µg/mL
O=S(=O)(Nc1cccc2ccc(CNC3CCCCC3)nc12)c1ccc(C(F)(F)F)cc1 [ZDR405, N-(2-((Cyclohexylamino)methyl)quinolin-8-yl)-4-(trifluoromethyl)benzenesulfonamide] | 16 µg/mL (≈ 34.5 µM) | 0.125 µg/mL (≈ 0.27 µM) | 64 µg/mL (≈ 138 µM) | 128 µg/mL (≈ 276 µM) | 128 µg/mL (≈ 276 µM) | > 256 µg/mL
O=S(=O)(Nc1cccc2ccc(CNCC3CCCCC3)nc12)c1ccc(C(F)(F)F)cc1 [ZDR406, N-(2-(((Cyclohexylmethyl)amino)methyl)quinolin-8-yl)-4-(trifluoromethyl)benzenesulfonamide] | 16 µg/mL (≈ 33.5 µM) | 0.125 µg/mL (≈ 0.262 µM) | 32 µg/mL (≈ 67 µM) | 128 µg/mL (≈ 268 µM) | 64 µg/mL (≈ 134 µM) | 256 µg/mL (≈ 536 µM)
O=S(=O)(Nc1cccc2ccc(CN3CCCC3)nc12)c1ccc(C(F)(F)F)cc1 [ZDR407, N-(2-(Pyrrolidin-1-ylmethyl)quinolin-8-yl)-4-(trifluoromethyl)benzenesulfonamide] | 128 µg/mL (≈ 294 µM) | 0.125 µg/mL (≈ 0.287 µM) | 64 µg/mL (≈ 147 µM) | 256 µg/mL (≈ 588 µM) | 256 µg/mL (≈ 588 µM) | 256 µg/mL (≈ 588 µM)
O=S(=O)(Nc1cccc2ccc(CN3CCCCCC3)nc12)c1ccc(C(F)(F)F)cc1 [ZDR408, N-(2-(Azepan-1-ylmethyl)quinolin-8-yl)-4-(trifluoromethyl)benzenesulfonamide] | 32 µg/mL (≈ 69 µM) | 0.125 µg/mL (≈ 0.27 µM) | 64 µg/mL (≈ 138 µM) | 256 µg/mL (≈ 552 µM) | > 256 µg/mL | 256 µg/mL (≈ 552 µM)
CCCN(CCC)Cc1ccc2cccc(NS(=O)(=O)c3ccc(C(F)(F)F)cc3)c2n1 [ZDR409, N-(2-((Dipropylamino)methyl)quinolin-8-yl)-4-(trifluoromethyl)benzenesulfonamide] | 256 µg/mL (≈ 550 µM) | 0.125 µg/mL (≈ 0.269 µM) | 64 µg/mL (≈ 137 µM) | 256 µg/mL (≈ 550 µM) | > 256 µg/mL | > 256 µg/mL
C=CS(=O)(=O)Nc1cccc2ccc(CN(C)C)nc12 [ZDR500, N-(2-((Dimethylamino)methyl)quinolin-8-yl)ethenesulfonamide] | > 256 µg/mL | 0.5 µg/mL (≈ 1.72 µM) | 256 µg/mL (≈ 879 µM) | > 256 µg/mL | > 256 µg/mL | > 256 µg/mL
Cc1cc(CS(=O)(=O)Nc2cccc3ccc(CN(C)C)nc23)no1 [ZDR501, N-(2-((Dimethylamino)methyl)quinolin-8-yl)-1-(5-methylisoxazol-3-yl)methanesulfonamide] | > 256 µg/mL | 0.25 µg/mL (≈ 0.694 µM) | 256 µg/mL (≈ 710 µM) | > 256 µg/mL | > 256 µg/mL | > 256 µg/mL
CN(C)Cc1ccc2cccc(NS(=O)(=O)C3CCOCC3)c2n1 [ZDR502, N-(2-((Dimethylamino)methyl)quinolin-8-yl)tetrahydro-2H-pyran-4-sulfonamide] | > 256 µg/mL | 0.25 µg/mL (≈ 0.715 µM) | > 256 µg/mL | > 256 µg/mL | > 256 µg/mL | > 256 µg/mL
CN(C)Cc1ccc2cccc(NS(=O)(=O)CC3CC3)c2n1 [ZDR503, 1-Cyclopropyl-N-(2-((dimethylamino)methyl)quinolin-8-yl)methanesulfonamide] | > 256 µg/mL | 0.125 µg/mL (≈ 0.391 µM) | > 256 µg/mL | 256 µg/mL (≈ 801 µM) | > 256 µg/mL | > 256 µg/mL
CN(C)Cc1ccc2cccc(NS(=O)(=O)CC3CCOCC3)c2n1 [ZDR504, N-(2-((Dimethylamino)methyl)quinolin-8-yl)-1-(tetrahydro-2H-pyran-4-yl)methanesulfonamide] | > 256 µg/mL | 0.5 µg/mL (≈ 1.38 µM) | > 256 µg/mL | 256 µg/mL (≈ 704 µM) | > 256 µg/mL | > 256 µg/mL
CN(C)Cc1ccc2cccc(NS(=O)(=O)Cc3ccc(Cl)nc3)c2n1 [ZDR505, 1-(6-Chloropyridin-3-yl)-N-(2-((dimethylamino)methyl)quinolin-8-yl)methanesulfonamide] | > 256 µg/mL | 0.25 µg/mL (≈ 0.64 µM) | > 256 µg/mL | 256 µg/mL (≈ 655 µM) | > 256 µg/mL | > 256 µg/mL
C#CCS(=O)(=O)Nc1cccc2ccc(CN(C)C)nc12 [ZDR506, N-(2-((Dimethylamino)methyl)quinolin-8-yl)prop-2-yne-1-sulfonamide] | 256 µg/mL (≈ 844 µM) | 2 µg/mL (≈ 6.59 µM) | > 256 µg/mL | > 256 µg/mL | > 256 µg/mL | > 256 µg/mL
